The experiment deals with T1, Adenosine receptor A3 (Homo sapiens, UniProt P0DMS8).
T1 sequence (P0DMS8 whole entry): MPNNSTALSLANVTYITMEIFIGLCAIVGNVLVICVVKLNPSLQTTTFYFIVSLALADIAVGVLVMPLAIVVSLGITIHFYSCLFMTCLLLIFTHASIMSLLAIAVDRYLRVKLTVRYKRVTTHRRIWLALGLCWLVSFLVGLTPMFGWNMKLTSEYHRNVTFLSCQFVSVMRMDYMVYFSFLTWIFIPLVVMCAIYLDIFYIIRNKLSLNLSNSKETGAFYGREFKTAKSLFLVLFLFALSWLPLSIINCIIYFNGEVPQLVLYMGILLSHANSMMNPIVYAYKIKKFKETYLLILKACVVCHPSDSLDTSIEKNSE

Compound `Nc1ccc(CNc2ncnc3c2ncn3[C@@H]2O[C@H](CO)[C@@H](O)[C@H]2O)cc1I` [IABA] gave a Ki of 10 nM.

A word on the Ki: it is the equilibrium dissociation constant of an inhibitor or competing ligand from its target. A lower Ki goes with higher affinity.
